For the assay, the target named is T1, recombinant human Meningioma Expressed Antigen 5 (MGEA5), also referred to as O-GlcNAcase (OGA) (Homo sapiens, UniProt O60502).
T1 construct: Full length OGA enzyme was purchased at OnGene (cat #TP322411); purchased OnGene (so in the source)
T1 sequence (O60502 1-916): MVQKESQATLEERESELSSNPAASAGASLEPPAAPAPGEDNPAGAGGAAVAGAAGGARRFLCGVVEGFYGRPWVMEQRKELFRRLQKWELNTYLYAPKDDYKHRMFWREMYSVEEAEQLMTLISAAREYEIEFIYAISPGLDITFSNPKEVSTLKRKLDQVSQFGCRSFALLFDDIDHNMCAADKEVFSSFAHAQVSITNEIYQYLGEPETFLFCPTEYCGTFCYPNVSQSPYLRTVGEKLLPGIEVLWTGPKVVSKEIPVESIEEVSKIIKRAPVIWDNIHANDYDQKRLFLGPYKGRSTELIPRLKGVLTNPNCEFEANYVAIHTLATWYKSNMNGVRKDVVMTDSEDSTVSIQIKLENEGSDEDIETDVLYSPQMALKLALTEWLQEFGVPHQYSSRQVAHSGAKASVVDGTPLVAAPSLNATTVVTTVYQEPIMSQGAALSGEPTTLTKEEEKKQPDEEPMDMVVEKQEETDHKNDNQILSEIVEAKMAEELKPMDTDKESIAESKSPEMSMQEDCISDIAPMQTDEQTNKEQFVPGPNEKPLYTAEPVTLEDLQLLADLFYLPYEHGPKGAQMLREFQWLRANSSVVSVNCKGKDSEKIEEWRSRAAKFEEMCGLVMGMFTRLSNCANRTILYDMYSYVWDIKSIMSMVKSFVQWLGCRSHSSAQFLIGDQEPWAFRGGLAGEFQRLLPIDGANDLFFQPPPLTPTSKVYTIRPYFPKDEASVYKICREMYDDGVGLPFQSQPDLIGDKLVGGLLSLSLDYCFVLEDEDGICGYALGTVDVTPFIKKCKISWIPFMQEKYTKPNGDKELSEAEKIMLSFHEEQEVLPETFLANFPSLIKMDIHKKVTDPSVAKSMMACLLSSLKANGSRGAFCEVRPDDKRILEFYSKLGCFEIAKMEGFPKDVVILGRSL
As to the kind of experiment: OGA biochemical assay (inhibition of FM-GlcNAc hydrolysis, fluorescence). The conditions noted are these: for Enzymatic Emax (%) / Emax: maximal effect; for IC50: read-out: Enzymatic hOGA, pIC50 (converted); for Emax: read-out: Enzymatic Emax (%). An excerpt:
The assay is based on the inhibition of the hydrolysis of fluorescein mono-β-D-N-Acetyl-Glucosamine (FM-GlcNAc) (Mariappa et al. 2015, Biochem J 470:255) by the recombinant human Meningioma Expressed Antigen 5 (MGEA5), also referred to as O-GlcNAcase (OGA). The hydrolysis FM-GlcNAc (Marker Gene technologies, cat #M1485) results in the formation of β-D-N-glucosamineacetate and fluorescein. The fluorescence of the latter can be measured at excitation wavelength 485 nm and emission wavelength 538 nm. An increase in enzyme activity results in an increase in fluorescence signal. Full length OGA enzyme was purchased at OnGene (cat #TP322411). The enzyme was stored in 25 mM Tris.HCl, pH 7.3, 100 mM glycine, 10% glycerol at −20° C. Thiamet G and GlcNAcStatin were tested as reference compounds (Yuzwa et al. 2008 Nature Chemical Biology 4:483; Yuzwa et al. 2012 Nature Chemical Biology 8:393). The assay was performed in 200 mM Citrate/phosphate buffer supplemented with 0.005% Tween-20. 35.6 g Na2HPO42H2O (Sigma, #C0759) were dissolved in 1 L water to obtain a 200 mM solution. 19.2 g citric acid (Merck, #1.06580) was dissolved in 1 L water to obtain a 100 mM solution. pH of the sodiumphosphate solution was adjusted with the citric acid solution to 7.2. The buffer to stop the reaction consists of a 500 mM Carbonate buffer, pH 11.0. 734 mg FM-GlcNAc were dissolved in 5.48 mL DMSO to obtain a 250 mM solution and was stored at −20° C. OGA was used at a 2 nM concentration and FM-GlcNAc at a 100 uM final concentration. Dilutions were prepared in assay buffer.
50 nl of a compound dissolved in DMSO was dispensed on Black Proxiplate TM 384 Plus Assay plates (Perkin Elmer, #6008269) and 3 μl fl-OGA enzyme mix added subsequently. Plates were pre-incubated for 60 min at room temperature and then 2 μl FM-GlcNAc substrate mix added. […] Plates were briefly centrifuged for 1 min at 1000 rpm and incubate at room temperature for 6 h. To stop the reaction 5 μl STOP buffer were added and plates centrifuge again 1 min at 1000 rpm. Fluorescence was quantified in the Thermo Scientific Fluoroskan Ascent or the PerkinElmer EnVision with excitation wavelength 485 nm and emission wavelength 538 nm.
For analysis a best-fit curve is fitted by a minimum sum of squares method. From this an IC50 value and Hill coefficient was obtained. High control (no inhibitor) and low control (saturating concentrations of standard inhibitor) were used to define the minimum and maximum values.

`COc1cc(NC[C@@H]2CCCN(C(C)c3ccc4c(n3)OCCO4)C2)cc(C)n1` (single isomer, unassigned) [Product 29]: the “Enzymatic Emax (%)” value came out at 97% and the IC50 was 79.4 nM. For `Cc1cc(C[C@H]2CCCN(C(C)c3ccc4c(n3)OCC(=O)N4)C2)cc(C)n1` (single isomer, unassigned) [Product 60], in that order: 78% and 3160 nM. Regarding `Cc1cc(C[C@H]2CCCN(C(C)c3ccc4c(n3)OCCO4)C2)cc(C)n1` (single isomer, unassigned) [Product 45], the Emax (in general, the greatest response seen or fitted, relative to the assay's reference) was 98% and the IC50 is 501 nM. For `Cc1cc(O[C@@H]2CCCN([C@@H](C)c3cnc4c(c3)OCCN4)C2)cc(C(F)(F)F)n1` [Product 17], in that order: 99% and 79.4 nM. As for `Cc1cc(C[C@H]2CCCN(C(C)c3cc4c(cc3C)OCCO4)C2)cc(C)n1` (mixture of isomers) [Product 126], the Emax was 1% and the IC50 is greater than 10000 nM.

With `Cc1cc([C@H]2CCCN([C@@H](C)c3cc4c(cc3F)OCCO4)C2)cc(C(F)(F)F)n1` (single isomer, unassigned) [Product 144], the Emax is 99% and the IC50 is 3.16 nM.

On to `Cc1cc(NCC2CCCN(C(C)c3ccc4c(n3)OCCO4)C2)cc(C(F)(F)F)n1` (single isomer, unassigned) [Product 35], for which the “Enzymatic Emax (%)” value was found to be 88% and the IC50 was 2510 nM. In the case of `Cc1cc(C[C@H]2CCCN([C@@H](C)c3cnc4c(c3)OCCO4)C2)cc(C)n1` (single isomer, unassigned) [Product 131], the Emax came out at 97% and the IC50 is 501 nM. For `COc1cc(NC[C@H]2CCCN(C(C)c3ccc4c(n3)OCCO4)C2)cc(C)n1` (single isomer, unassigned) [Product 25] the same measures were 103% and 79.4 nM. For `Cc1cc(C[C@H]2CCCN(C(C)c3ccc4c(c3)OCC(=O)N4)C2)cc(C)n1` (mixture of isomers) [Product 58], in that order: 102% and 126 nM. For `Cc1cc([C@@H]2CCCN([C@@H](C)c3cc4c(cc3F)OCCO4)C2)cc(C(F)(F)F)n1` (single isomer, unassigned) [Product 143], in that order: 87% and 2510 nM. With `Cc1cnc(C)c(C2CCCN(C(C)c3ccc4c(n3)OCCO4)C2)n1` (stereo not shown) [Product 12], the Emax is 96% and the IC50 is 501 nM. For `COc1cc(NC[C@@H]2CCCN(C(C)c3ccc4c(n3)OCCO4)C2)cc(C)n1` (mixture of isomers) [Product 27], in that order: 102% and 200 nM. For `CC(c1ccc2c(n1)OCCO2)N1CCCC(Oc2ncc(F)cc2F)C1` (stereo not shown) [Product 134], in that order: 96% and 158 nM. For `Cc1cc(C[C@H]2CCCN(Cc3cnc4c(c3)OCC(=O)N4)C2)cc(C)n1` [Product 55], in that order: 90% and 1260 nM.

Turning to `Cc1cc(C[C@H]2CCCN(Cc3cnc4c(c3)OCCN4C)C2)cc(C)n1` [Product 53], the maximum response (Emax) was 94% and the IC50 was 794 nM. `COc1cc(C[C@H]2CCCN([C@@H](C)c3ccc4c(n3)OCCO4)C2)cc(C)n1` [Product 65]: the Emax was found to be 102% and the IC50 is 200 nM.

Turning to `Cc1cc([C@@H]2CCCN([C@H](C)c3ccc4c(c3)OCC4)C2)cc(C)n1` (single isomer, unassigned) [Product 6], the Emax was found to be 101% and the IC50 is 126 nM.

Take `Cc1cc(C[C@H]2CCCN(C(C)c3cnc4c(c3)OCCN4)C2)cc(C)n1` (single isomer, unassigned) [Product 51]: the Emax is 101% and the IC50 is 200 nM. For `Cc1cc(NCC2CCCN(C(C)c3ccc4c(n3)OCCO4)C2)cc(C(F)(F)F)n1` (single isomer, unassigned) [Product 34], the “Enzymatic Emax (%)” value is given as 100% and the IC50 was 200 nM. With `Cc1cc(C[C@H]2CCCN(Cc3ccc4c(n3)OCC(=O)N4)C2)cc(C)n1` [Product 54], the Emax came to 78% and the IC50 is 3160 nM. Take `COc1cc(NC[C@@H]2CCCN(C(C)c3ccc4c(n3)OCCO4)C2)cc(C)n1` (single isomer, unassigned) [Product 28]: the Emax is 99% and the IC50 is 1000 nM. Regarding `Cc1cc(C[C@H]2CCCN(Cc3cnc4c(c3)OCC(=O)N4C)C2)cc(C)n1` [Product 127], the Emax stood at 10% and the IC50 was greater than 10000 nM. For `COc1cc(NCC2CCCN(C(C)c3cc4c(cc3F)OCCO4)C2)cc(C)n1` (stereo not shown) [Product 38] the same measures were 102% and 6.31 nM. For `Cc1cc([C@H]2CCCN([C@@H](C)c3ccc4c(c3)OCC4)C2)cc(C)n1` (single isomer, unassigned) [Product 5] the same measures were 102% and 3.16 nM. For `Cc1cc(OC[C@@H]2CCCN(C(C)c3ccc4c(n3)OCCO4)C2)cc(C)n1` (mixture of isomers) [Product 20], in that order: 98% and 316 nM.

As to `Cc1cc(NCC2CCCN(C(C)c3cc4c(cc3F)OCCO4)C2)cc(C)n1` (stereo not shown) [Product 37], the maximal response (Emax) worked out at 102% and the IC50 was 5.01 nM.

`Cc1cc([C@H]2CCCN([C@H](C)c3cc4c(cc3F)OCCO4)C2)cc(C(F)(F)F)n1` (single isomer, unassigned) [Product 142]: the Emax was found to be 52%.

As to `Cc1cc([C@H]2CCCN([C@H](C)c3ccc4c(c3)OCC4)C2)cc(C)n1` [Product 3], the Emax worked out at 97% and the IC50 was 794 nM. For `Cc1cc(NC[C@H]2CCCN([C@H](C)c3ccc4c(n3)OCCO4)C2)cc(C(F)(F)F)n1` (single isomer, unassigned) [Product 32] the same measures were 99% and 398 nM. For `Cc1cc([C@@H]2CCCN([C@H](C)c3cc4c(cc3F)OCCO4)C2)cc(C(F)(F)F)n1` (single isomer, unassigned) [Product 141], in that order: 98% and 501 nM. For `Cc1cc(C[C@H]2CCCN([C@H](C)c3cc4c(cc3F)OCCO4)C2)cc(C)n1` (single isomer, unassigned) [Product 41], in that order: 94% and 1000 nM. Turning to `Cc1cc(C[C@H]2CCCN(Cc3cc4c(cc3C)OCCO4)C2)cc(C)n1` [Product 39], the Emax is 92% and the IC50 is 794 nM. For `Cc1cc(C[C@H]2CCCN(C(C)c3ccc4c(n3)OCC(=O)N4C)C2)cc(C)n1` (mixture of isomers) [Product 62], the Emax was 77% and the IC50 is 3160 nM.

Values taken from patent US20210300943A1, “OGA INHIBITOR COMPOUNDS” (Janssen Pharmaceutica NV, priority 2018, published 2021).
